Assay results reported in patent US10507210B2, “Kinase inhibitor prodrug for the treatment of cancer” (Auckland UniServices Limited, priority 2014, dated 2019).

Tests used:
[1] = tested on: EGFR autophosphorylation (Y1068)
Protocol: HCC827 and PC9 cell cultures are set up from log-phase passage flasks. Cells are seeded into 6-well plates at a density of 1 million cells per well and left for 48 hours under normoxic or hypoxic (1% O2) conditions. Following 3 hours of drug exposure, cells are washed in ice-cold PBS and lysed on ice for 30 minutes with radioimmunoprecipitation assay (RIPA) buffer containing sodium orthovanadate and sodium fluoride at final concentrations of 1 mM each. Cell debris is pelleted out by centrifugation (13,000 rpm for 2 minutes). Protein concentrations in each sample are determined by a bicinchoninic acid (BCA) assay. Equivalent amounts of protein (10 pig) are denatured (98° C. for 5 minutes) and loaded onto 4-20% Tris-Glycine protein gels for protein separation. Following transfer to a nitrocellulose membrane, each membrane was blocked with 5% bovine serum albumin (in Tris-buffered saline) for 1 hour. […] Excess primary antibody in each membrane was washed off with Tris-buffered saline. Secondary antibody (goat anti-rabbit) was added to each membrane at a dilution of 1:5000 for 2 hours. For protein detection, the membrane was washed in Tris-buffered saline to remove excess secondary antibody and chemiluminescent substrate added (Pierce Supersignal West Pico Chemiluminescent Substrate) for 5 minutes. The membrane was viewed using a Fujifilm LAS 4000 imager.

[2] = tested on: WT EGFR driven H125 xenografts; settings: mouse, in vivo
HCC827 tumor = experiment: HCC827 xenograft growth delay; type: in vivo, mice; settings: Erlotinib 10 mg/kg Qdx21 p.o.
Protocol: (§1) HCC827 and PC9 human non-small cell lung cancer (NSCLC) cells were prepared in medium. […] HCC827 tumors were recruited at ˜200 mm^3 and PC9 tumors were recruited at ˜400 mm^3. When the tumors reached the desired volumes, the mice were randomly assigned to groups A-E and treated as detailed in Table 1 below:
(§2) Body weight was recorded every 3 days or prior to dosing and the length and width of subcutaneous tumors were measured with electronic calipers every 3 days and volume calculated according to the formula for a prolate ellipsoid (π/6×length×width×width). All other clinical signs were recorded.

[3] = tested on: WT EGFR expressing A431 xenograft; experiment: A431 xenograft antitumor activity; type: in vivo, mice; settings: daily oral
in vivo [4] = settings: NIH-III nude, mouse, blood, po, 10 mg/kg
PC9 tumor = experiment: PC9 xenograft growth delay; type: in vivo, mice
Protocol: as §1, §2

FaDu cells [5] = experiment: FaDu anti-proliferative assay, five day continuous aerobic exposure; type: cell-based, human
Protocol: (§3) FaDu cells were grown in αMEM culture medium supplemented with 5% FBS, without routine use of antibiotics (P/S). Cultures were re-established from authenticated frozen stocks in liquid nitrogen at either >24 passages or >90 days in culture (whichever came first). The frozen cell stocks were confirmed to be free of mycoplasma using a PCR-ELIZA kit (Roche Diagnostics GmbH, Mannheim, Germany).
Cells were then treated with ten serial dilutions (3-fold) of each test compound. Cells were left to grow in a humidified incubator (5% CO2, 37° C.) for 5 days. Cells were then fixed with 40% trichloroacetic acid for 1 h at 4° C. Cells were then stained for Sulforhodamine B (SRB) expression. Cell density was determined by using the Biotek ELx808 Absorbance Microplate Reader.

FaDu cells [6] = experiment: FaDu anti-proliferative assay, oxic vs anoxic 24 h exposure; type: cell-based, human
Protocol: as §3
Monolayers of FaDu cells were harvested by trypsinisation and counted using a hemocytometer. For the oxic assays, cells were seeded (1500 cells/well) in 96 well plates and allowed to settle for 2 hours in a humidified incubator (37 C/5% CO2). Cells were then treated with ten serial dilutions (3-fold) of each test compound for 24 hours. For the anoxic plates, all supplies were pre-equilibrated for at least 72 hours in a H2/palladium-catalyst anaerobic chamber (Bactron, Shellab) to remove any residual oxygen. On the experiment day, cells were centrifuged (1000 rpm, 5 min) to pellet cells. The media was aspirated. The pellet was then taken into the anaerobic chamber and diluted in anoxia-equilibrated media (αMEM culture media, 5% FCS, 0.2 mmol/L 2′-deoxycytidine, 10 mmol/L glucose) to achieve the appropriate cell density. Cells were seeded in identical conditions to the oxic plates. Once seeded, cells were left to settle in a humidified incubator (37 C) within the anaerobic chamber for 2 hours. Anoxic plates were similarly treated with ten serial dilutions (3-fold) of each test compound. Anoxic plates were removed from the anaerobic chamber four hours after drug addition, and placed into a humidified incubator (37 C/5% CO2) for a further 20 hours. After a total of 24 hours of drug exposure, both the oxic and anoxic plates were washed three times in fresh media (αMEM+5% FCS+P/S). Cells were left to grow for a total of 5 days. After which, cells were fixed with 40% trichloroacetic acid for 1 hour at 4° C. Plates were then stained for Sulforhodamine B (SRB) expression. Cell density was determined by using the Biotek ELx808 Absorbance Microplate Reader. […]

PC9 xenografts = type: in vivo; settings: erlotinib 10 mg/kg daily oral, period of dosing 21 days
Protocol: Tumors were grown to ˜400 mm^3. When tumors were 400 mm^3 mice were randomly assigned to groups A-J and treated as detailed below:
The length and width of subcutaneous tumors were measured with electronic calipers every 3 days and volume calculated according to the formula for a prolate ellipsoid (π/6×length×width×width). Body weight was recorded every 3 days or prior to dosing. All other clinical signs were recorded.

in vivo [7] = settings: NIH-III, mouse, plasma, ip, 15 mg/kg; for Cmax: 15 mg/kg TH-4000 ip, ± SE
Protocol: (§4) Mice were inoculated with PC-9 cells (˜8×10^6 cells per mouse, 42 mice in total). […] The whole tumors were snap frozen (with liquid nitrogen) and bio-pulverised. The tumors were measured every day until collection to correlate the growth kinetics of the tumor to target shutdown.
(§5) For LC-MS/MS, 4 volumes of ice cold acetonitrile (containing 0.5 μM of D6-TH-4000 & TH-4000E) were added to the tumor samples. Samples were spun at 13,000 rpm for 5 min. and 40 μL of the supernatant was taken. To the supernant, 80 μL of 0.01% FA-Water was added and the sample was mixed. 10 μL of this sample was injected for analysis. […] The mass spectrometer was operated in electrospray positive ionization mode using multiple reaction monitoring (MRM). Agilent MassHunter software (v.4.04.00) was used for data acquisition and chromatographic peak integration.

pEGFR (Y1068) = pEGFR (Y1068) (Homo sapiens, UniProt P00533); experiment: FaDu target modulation Western blot, pEGFR
EGFR signalling = experiment: Hypoxia preconditioning and TH-4000E sensitivity in FaDu cells; type: cell-based, human; settings: 48 h at 0.1% O2 or 21% O2
Protocol: FaDu cells were seeded (500 k per well) in 6 well plates under both 0.1% O2 and 21% O2 for 48 hours. After 48 h of hypoxia preconditioning, cells were incubated with various concentrations of TH-4000E for 1 h.
After the designated period of anoxic exposure, cells were washed once in ice-cold PBS. […] After clarification, a BCA assay was performed to determine the protein concentration of the samples. Absorbance readings were performed at 550 nm.
Cellular lysates were resolved by gel electrophoresis and immunoblotted for various members of the EGFR signaling axis. Each loading volume included 10 μg of protein and 25% LDS sample buffer (Life Technologies #NP0007). Samples were loaded onto NuPAGE 4-12% Bis-Tris 15 well gels (Life Technologies #NP0336) and run in MES running buffer (Life Technologies #NP0002) for approximately 2 h's at 120V or until the samples had run off the gel (whichever came first). Samples were then transferred (Transfer buffer: 25 mM Tris, 192 mM glycine, 20% methanol) for 80 mins at 100V onto nitrocellulose membranes. Blots were blocked in 5% BSA or 5% phosphoblocker (CellBiolabs #AKR-104) in TBS-T for at least 1 h. Briefly, blots were incubated with primary antibodies overnight at 4° C. After three 5 min washes in TBS-T, blots were then incubated with the appropriate HRP-conjugated secondary antibody for at least 2 hours at room temperature. […]

pAkt = experiment: FaDu target modulation Western blot, pAkt; settings: 1 h drug, EGF 50 ng/mL 15 min
[8] = 15 mg/kg TH-4000, tumor
Protocol: as §4, §5

[9] = tested on: EGFR pathway signal transduction; experiment: FaDu target modulation, EGFR pathway relative dose potency
pERK = experiment: FaDu target modulation Western blot, pERK; settings: 1 h drug, EGF 50 ng/mL 15 min

C=CC(=O)Nc1cc(Nc2nccc(-c3cn(C)c4ccccc34)n2)c(OC)cc1N(C)CCN(C)C [AZD9291]
effect of hypoxia on inhibition of EGFR phosphorylation [1]: resistance to AZD9291

CN(C)C/C=C/C(=O)Nc1cc2c(Nc3ccc(F)c(Cl)c3)ncnc2cc1O[C@H]1CCOC1 [Afatinib]
Day of average weight loss nadir [2]: [day 9]

C#Cc1cccc(Nc2ncnc3cc(OCCOC)c(OCCOC)cc23)c1 [Erlotinib]
Median time to RTV4 (HCC827 tumor): 114 days
tumor outcome [3]: unable to prevent tumor progression
AUC(0-inf) (in vivo [4]): 20000 ng·h/mL
Median Survival gain (PC9 tumor; 10 mg/kg Erlotinib, reference Control): 9 days
Median time to RTV4 (PC9 tumor; Erlotinib 10 mg/kg Qdx21 p.o.): 39 days
IC50 difference, erlotinib superior to cetuximab (FaDu cells [5]): 2 fold
effect of anoxia on sensitivity (FaDu cells [6]): unaffected by anoxia
IC50 lower than cetuximab (FaDu cells [6]; after anoxic exposure): 13 fold
tumor response (PC9 xenografts): stable disease

CN(C)C/C=C/C(=O)Nc1cc2c(Nc3ccc(Cl)c(Br)c3)ncnc2cn1 [TH-4000E]
AUC(0-inf) (in vivo [7]): 106 ng·h/mL
half-life (in vivo [7]): 1.28 h
Cmax (in vivo [7]; Cmax obs): 47 ± 3.6 ng/mL
Cmax (in vivo [7]; Cmax pred): 50 ng/mL
concentration completely silencing pEGFR (Y1068) expression (pEGFR (Y1068); 1 h drug, EGF 50 ng/mL 15 min): ≥ 0.12 μM
pEGFR expression completely silenced up to (pEGFR (Y1068); lowest concentration of 3-fold dilutions): 0.041 μM
sensitivity, oxia- vs hypoxia-preconditioned cells (EGFR signalling): comparable
concentration largely silencing pAkt expression (pAkt): above 0.12 μM
T½β of released TKI in PC9 tumors [8]: 84 h
dose potency relative to cetuximab (FaDu cells [5]): 150 fold
lower IC50 value than erlotinib (FaDu cells [5]): 80 fold
dose potency relative to TH-4000 [9]: approximately 28 fold
dose potency relative to cetuximab [9]: at least 250 fold
concentration completely silencing pERK expression (pERK): ≥ 0.12 μM
dose-potency relative to erlotinib (IC50) (FaDu cells [6]): 1400 fold
